From BigSolDB 2.1

COc1cccc(CCc2ccccc2OCC(CN(C)C)OC(=O)CCC(=O)O)c1.Cl (stereo not given)
solubility (mole fraction)
Conditions | in THF | in acetone | in acetonitrile | in ethanol | in isopropanol | in methanol | in n-butanol | in n-propanol
288.15 K | 2.24e-05 | 4.85e-05 | 9.78e-05 | 0.00168 | 4.48e-05 | 0.00376 | 0.00011 | 0.000171
293.15 K | 3.25e-05 | 7.84e-05 | 0.000141 | 0.00211 | 8.24e-05 | 0.00493 | 0.000146 | 0.000262
298.15 K | 4.28e-05 | 0.000106 | 0.000171 | 0.00278 | 0.00011 | 0.00653 | 0.00019 | 0.000354
303.15 K | 7.01e-05 | 0.000193 | 0.000239 | 0.00345 | 0.000144 | 0.00856 | 0.000294 | 0.000504
308.15 K | 9.92e-05 | 0.000275 | 0.000313 | 0.00476 | 0.000186 | 0.0116 | 0.000412 | 0.000698
